These results are taken from patent US20240287070A1, “FUSED HETEROCYCLIC DERIVATIVES” (Janssen Sciences Ireland Unlimited Company, priority 2021, published 2024).

In general, EC50 refers to the concentration that produces a half-maximal response. Higher therefore signals a less potent agent. By CC50 is commonly meant the concentration giving 50% cytotoxicity. Read a low CC50 as harm at low concentration.

Data set [1] has as its system HBV (HepG2.117 cell line, inducibly HBV producing). Kind of data set: Anti-HBV activity, intracellular HBV DNA by real-time PCR in HepG2.117 cell line. In kind it is cell-based, hepatitis B virus. The note with it: HepG2.117 cells, 3 days of treatment. Here is the method:
The anti HBV activity was measured using the HepG2.117 cell line, a stable, inducibly HBV producing cell line, which replicates HBV in the absence of doxycycline (Tet-off system). The HepG2 cell line is available from ATCCR under number HB-8065. Transfection of the HepG2 cell line can be as described in Sun and Nassal 2006 Journal of Hepatology 45 (2006) 636-645 “Stable HepG2- and Huh7-based human hepatoma cell lines for efficient regulated expression of infectious hepatitis B virus”.
For the antiviral assay, HBV replication was induced, followed by a treatment with serially diluted compound in 96-well plates. After 3 days of treatment, the antiviral activity was determined by quantification of intracellular HBV DNA using real-time PCR and an HBV specific primer set and probe.
(Quantitative PCR measures a nucleic acid by following its amplification.)

Data set [2] in a line: Cytotoxicity, ATPlite Luminescence Assay. The class given is cell-based, human. The note with it: human, HepG2 or HepG2.117 cells, 3-days incubation unless marked with *. The procedure: Cytotoxicity of the compounds was tested using HepG2 or HepG2.117 cells, incubated for 3 or 4 days in the presence of compounds. The viability of the cells was assessed using the PERKIN ELMER ATPlite Luminescence Assay System.”

The nature of data set [3]: Human liver microsome stability. The note with it: 1 μM compound, NADPH 1 mM, 37° C., 0-60 min; for half-life at 1 μM: human, pooled human liver microsomes, pH 7.4, pooled human liver microsomes 0.5 mg/mL, read-out: HLM Metabolism t1/2; for HLM Metabolism t1/2: pooled human liver microsomes 0.5 mg/mL. The class given is in vitro ADME. Here is the method:
Human Liver Microsome Stability t½ (Min) of Compounds of Formula (I) […] All incubations are performed singularly for each compound. NADPH was added to initiate the reaction with the final concentration of 1 mM and the final incubation volume of 400 μL. At 6 time points (0, 5, 10, 20, 40 and 60 min) reactions were stopped by the removal of 50 μL of the incubation mixture into plates containing acetonitrile at a of 1:3 (v:v). The plates were centrifuged at 3000 rpm for 10 min at 4° C. to precipitate the protein. Following protein precipitation, the sample supernatants were combined in cassettes of up to 8 compounds. The internal standard was added (1:1 supernatant to internal standard solution) and samples were analyzed using standard LC-MS conditions. From a plot of ln peak area ratio (compound peak area/internal standard peak area) against time, the gradient of the line is determined. Subsequently, half-life is calculated using the equations below: Elimination rate constant (k)=(−gradient) […]
(Liver microsomes are vesicles of endoplasmic reticulum, rich in cytochrome P450 enzymes.)

Setting [4] is: Hepatitis B virus, HepG2.117, 72 h.

In data set [1] (setting [4]), `Cc1ncnn1-c1ccc([C@H](C)N2C[C@@H](C)n3nc4c(c3C2=O)CN(C(=O)c2ccc(Cl)c(Cl)c2)[C@H](C)C4)cn1` (relative stereo) [Compound 25B, (3R,7R)-2-(3,4-dichlorobenzoyl)-3,7-dimethyl-9-((S*)-1-(6-(5-methyl-11H-1,2,4-triazol-1-yl)pyridin-3-yl)ethyl)-1,2,3,4,8,9-hexahydropyrido[4′,3′:3,4]pyrazolo[1,5-a]pyrazin-10(7H)-one] showed an EC50 of 0.017 µM. In data set [2], this molecule gave a CC50 at 3 days above 50 µM. Moreover, the half-life at 1 μM in data set [3] was determined as 89.3 min.
As for `CN=[S@](C)(=O)c1ccc([C@@H](C)N2C[C@@H](C)n3nc4c(c3C2=O)CN(C(=O)c2ccc(Cl)c(Cl)c2)[C@H](C)C4)cn1` (relative stereo) [Compound 29A, (3R,7R)-2-(3,4-dichlorobenzoyl)-9-((R*)-1-(6-((R*)—N,S-dimethylsulfonimidoyl)pyridin-3-yl)ethyl)-3,7-dimethyl-1,2,3,4,8,9-hexahydropyrido[4′,3′:3,4]pyrazolo[1,5-a]pyrazin-10(7H)-one], the response in data set [1] (setting [4]) was half-maximal at 0.74 µM (EC50). In data set [2], this molecule registered a CC50 at 3 days above 50 µM. Moreover, in data set [3], the half-life at 1 μM worked out at 102 min.
In turn, `CN=[S@@](C)(=O)c1ccc([C@@H](C)N2C[C@@H](C)n3nc4c(c3C2=O)CN(C(=O)c2ccc(Cl)c(Cl)c2)[C@H](C)C4)cn1` (relative stereo) [Compound 29B, (3R,7R)-2-(3,4-dichlorobenzoyl)-9-((R*)-1-(6-((S*)—N,S-dimethylsulfonimidoyl)pyridin-3-yl)ethyl)-3,7-dimethyl-1,2,3,4,8,9-hexahydropyrido[4′,3′:3,4]pyrazolo[1,5-a]pyrazin-10(7H)-one] came in with an EC50 in data set [1] (setting [4]) of 0.81 µM. For the same molecule, the CC50 at 3 days in data set [2] was above 50 µM. For the same molecule, in data set [3], the half-life at 1 μM is above 180 min.
The corresponding values for `CN=[S@](C)(=O)c1ccc([C@H](C)N2C[C@@H](C)n3nc4c(c3C2=O)CN(C(=O)c2ccc(Cl)c(Cl)c2)[C@H](C)C4)cn1` (relative stereo) [Compound 29C, (3R,7R)-2-(3,4-dichlorobenzoyl)-9-((S*)-1-(6-((R*)—N,S-dimethylsulfonimidoyl)pyridin-3-yl)ethyl)-3,7-dimethyl-1,2,3,4,8,9-hexahydropyrido[4′,3′:3,4]pyrazolo[1,5-a]pyrazin-10(7H)-one] are 0.051 µM, above 50 µM and 86.1 min.
In the case of `CN=[S@@](C)(=O)c1ccc([C@H](C)N2C[C@@H](C)n3nc4c(c3C2=O)CN(C(=O)c2ccc(Cl)c(Cl)c2)[C@H](C)C4)cn1` (relative stereo) [Compound 29D, (3R,7R)-2-(3,4-dichlorobenzoyl)-9-((S*)-1-(6-((S*)—N,S-dimethylsulfonimidoyl)pyridin-3-yl)ethyl)-3,7-dimethyl-1,2,3,4,8,9-hexahydropyrido[4′,3′:3,4]pyrazolo[1,5-a]pyrazin-10(7H)-one], the EC50 in data set [1] (setting [4]) was found to be 0.059 µM. The molecule also came in with a CC50 at 3 days in data set [2] above 50 µM. The half-life at 1 μM in data set [3] was 74.8 min.
For `CC(c1ccc(C(C)(C)O)nc1)N1C[C@@H](C)n2nc3c(c2C1=O)CN(C(=O)c1ccc(Cl)c(Cl)c1)[C@H](C)C3` (single isomer, unassigned) [Compound 2A, (3R,7R)-2-(3,4-dichlorobenzoyl)-9-((R*)-1-(6-(2-hydroxypropan-2-yl)pyridin-3-yl)ethyl)-3,7-dimethyl-1,2,3,4,8,9-hexahydropyrido[4′,3′:3,4]pyrazolo[1,5-a]pyrazin-10(7H)-one], a half-maximal response in data set [1] (EC50) required 0.099 µM. The CC50 at 3 days in data set [2] was above 50 µM. Moreover, the half-life at 1 μM in data set [3] was above 180 min.
The corresponding values for `Cc1ncc(C(C)N2C[C@@H](C)n3nc4c(c3C2=O)CN(C(=O)c2ccc(Cl)c(Cl)c2)[C@H](C)C4)cn1` (single isomer, unassigned) [Compound 4A, (3R,7R)-2-(3,4-dichlorobenzoyl)-3,7-dimethyl-9-((R*)-1-(2-methylpyrimidin-5-yl)ethyl)-1,2,3,4,8,9-hexahydropyrido[4′,3′:3,4]pyrazolo[1,5-a]pyrazin-10(7H)-one] are 0.28 µM, above 50 µM and above 180 min.
Regarding `CC(c1ccc(-n2cncn2)nc1)N1C[C@@H](C)n2nc3c(c2C1=O)CN(C(=O)c1ccc(Cl)c(Cl)c1)[C@H](C)C3` (single isomer, unassigned) [Compound 5A, (3R,7R)-9-((R*)-1-(6-(1H-1,2,4-Triazol-1-yl)pyridin-3-yl)ethyl)-2-(3,4-dichlorobenzoyl)-3,7-dimethyl-1,2,3,4,8,9-hexahydropyrido[4′,3′:3,4]pyrazolo[1,5-a]pyrazin-10(7H)-one], it took 0.087 µM to reach a half-maximal effect in data set [1] (EC50). For the same molecule, the CC50 at 3 days in data set [2] was above 50 µM. For the same molecule, the half-life at 1 μM in data set [3] was above 180 min.
Molecule `Cc1ccc(C(C)N2C[C@@H](C)n3nc4c(c3C2=O)CN(C(=O)c2ccc(Cl)c(Cl)c2)[C@H](C)C4)nn1` (single isomer, unassigned) [Compound 6A, (3R,7R)-2-(3,4-dichlorobenzoyl)-3,7-dimethyl-9-((R*)-1-(6-methylpyridazin-3-yl)ethyl)-1,2,3,4,8,9-hexahydropyrido[4′,3′:3,4]pyrazolo[1,5-a]pyrazin-10(7H)-one] registered an EC50 in data set [1] (setting [4]) of 0.086 µM. Besides, the CC50 at 3 days in data set [2] was above 50 µM. For the same molecule, the “HLM Metabolism t1/2” value in data set [3] turned out to be 70.7 min.
`CC(c1ccc(C(C)(C)O)cc1)N1C[C@@H](C)n2nc3c(c2C1=O)CN(C(=O)c1ccc(Cl)c(Cl)c1)[C@H](C)C3` (single isomer, unassigned) [Compound 8A, (3R,7R)-2-(3,4-dichlorobenzoyl)-9-((R*)-1-(4-(2-hydroxypropan-2-yl)phenyl)ethyl)-3,7-dimethyl-1,2,3,4,8,9-hexahydropyrido[4′,3′:3,4]pyrazolo[1,5-a]pyrazin-10(7H)-one]: in data set [1], the EC50 was determined as 0.024 µM. In data set [2], the midpoint of cytotoxicity, the CC50 at 3 days, lay at 20.1 µM. Also, in data set [3], the half-life at 1 μM was above 180 min.
`CC(c1ccc(N2CCCC2=O)cc1)N1C[C@@H](C)n2nc3c(c2C1=O)CN(C(=O)c1ccc(Cl)c(C#N)c1)[C@H](C)C3` (single isomer, unassigned) [Compound 9A, 2-Chloro-5-((3R,7R)-3,7-Dimethyl-10-oxo-9-((R*)-1-(4-(2-oxopyrrolidin-1-yl)phenyl)ethyl)-1,2,3,4,7,8,9,10-octahydropyrido[4′,3′:3,4]pyrazolo[1,5-a]pyrazine-2-carbonyl)benzonitrile] showed an EC50 in data set [1] (setting [4]) of 0.022 µM. The molecule further had a CC50 at 3 days in data set [2] above 50 µM. Besides, in data set [3], the “HLM Metabolism t1/2” value came to 50.4 min.
Consider `CC(c1cnc(C(F)(F)F)cn1)N1C[C@@H](C)n2nc3c(c2C1=O)CN(C(=O)c1ccc(Cl)c(C#N)c1)[C@H](C)C3` (single isomer, unassigned) [Compound 10B, 2-Chloro-5-((3R,7R)-3,7-dimethyl-10-oxo-9-((S*)-1-(5-(trifluoromethyl)pyrazin-2-yl)ethyl)-1,2,3,4,7,8,9,10-octahydropyrido[4′,3′:3,4]pyrazolo[1,5-a]pyrazine-2-carbonyl)benzonitrile], for which the EC50 in data set [1] (setting [4]) came out at 0.087 µM. The CC50 at 3 days in data set [2] is above 50 µM. Moreover, the half-life at 1 μM in data set [3] is above 180 min.
For `CC(c1ccc(-n2cncn2)cc1)N1C[C@@H](C)n2nc3c(c2C1=O)CN(C(=O)c1ccc(Cl)c(C#N)c1)[C@H](C)C3` (single isomer, unassigned) [Compound 11A, 5-((3R,7R)-9-((R*)-1-(4-(1H-1,2,4-Triazol-1-yl)phenyl)ethyl)-3,7-dimethyl-10-oxo-1,2,3,4,7,8,9,10-octahydropyrido[4′,3′:3,4]pyrazolo[1,5-a]pyrazine-2-carbonyl)-2-chlorobenzonitrile], in that order: 0.039 µM, above 50 µM and above 180 min.
Regarding `CC(c1ccc(C(F)(F)F)nc1)N1C[C@@H](C)n2nc3c(c2C1=O)CN(C(=O)c1ccc(Cl)c(C#N)c1)[C@H](C)C3` (single isomer, unassigned) [Compound 12A, 2-Chloro-5-((3R,7R)-3,7-dimethyl-10-oxo-9-((R*)-1-(6-(trifluoromethyl)pyridin-3-yl)ethyl)-1,2,3,4,7,8,9,10-octahydropyrido[4′,3′:3,4]pyrazolo[1,5-a]pyrazine-2-carbonyl)benzonitrile], the EC50 in data set [1] was determined as 0.6 µM. Also, the CC50 at 3 days in data set [2] is above 50 µM. The half-life at 1 μM in data set [3] was above 180 min.
